Patent US20200231638A1, “STABILIZED ANTI-MICROBIAL PEPTIDES” (priority 2015, published 2020)
Read-outs that look alike come from different tables or passages of the source. Bridge positions count the residues as written; N and C are the ends. Square brackets hold non-standard residues; d marks the D form. Peptide text beside a SMILES is read from it. Hyp = O=C(O)[C@@H]1C[C@@H](O)CN1; R8 = C=CCCCCCC[C@@](C)(N)C(=O)O; S5 = C=CCCC[C@](C)(N)C(=O)O; Nle = CCCC[C@H](N)C(=O)O

Experiments:
S. aureus = format: cell-based, Staphylococcus aureus
In short: (§1)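 MIC read as the minimum peptide concentration showing no visible growth after 20-24 hours at 37° C. Cultures were grown overnight, then regrown several hours before testing. Medium was MHB refined by anion exchange to strip polyanions; final inoculum 5×10^5 CFU/ml.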

human red blood cells = format: cell-based
In short: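 Hemolysis expressed as absorbance of released hemoglobin (570 nm) normalized between untreated and 1% Triton-X100 controls, with MHC taken as peptide concentration giving under 1% release. Peptide dilutions were exposed for 1 h at 37° C to a 1% (v/v) suspension of washed human red cells in PBS.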

P. aeruginosa = format: cell-based, Pseudomonas aeruginosa
In short: as §1

E. coli = format: cell-based, Escherichia coli
In short: as §1

B. cereus = format: cell-based, Bacillus cereus
In short: as §1

Row | Structure (SMILES) | MIC S. aureus (S. aureus) | MIC P. aeruginosa (P. aeruginosa) | MIC E. coli (E. coli) | MIC B. cereus (B. cereus) | % Hemolysis at 25 μg/ml (human red blood cells; red cells of human, 1 h, 25) | % Hemolysis at 25 μg/ml (human red blood cells)
1 | CCCC[C@H](NC(=O)[C@@H](NC(=O)[C@H](CCC(=O)O)NC(=O)CNC(=O)[C@@H](NC(=O)[C@H](Cc1ccccc1)NC(=O)[C@H](C)NC(=O)[C@H](CCCCN)NC(=O)CNC(=O)[C@H](Cc1ccccc1)NC(=O)[C@H](CCCCN)NC(=O)[C@H](CCCCN)NC(=O)[C@H](C)NC(=O)[C@]1(C)CCCC=CCCC[C@](C)(NC(=O)CNC(=O)[C@@H](NC(=O)CN)[C@@H](C)CC)C(=O)N[C@@H](Cc2ccccc2)C(=O)N[C@@H](CC(C)C)C(=O)N[C@@H](Cc2c[nH]cn2)C(=O)N1)C(C)C)[C@@H](C)CC)C(=O)N[C@@H](CC(N)=O)C(=O)N[C@@H](CO)C(N)=O [Mag(i + 4)3] (H-GIG[S5]FLH[S5]AKKFGKAFVGEI[Nle]NS-NH2; staple 4-8) | 6.2 µg/mL | 25 µg/mL | 6.2 µg/mL | 12.5 µg/mL | 41.6% | 
2 | CCCC[C@H](NC(=O)[C@]1(C)CCCC=CCCC[C@](C)(NC(=O)[C@H](C)NC(=O)[C@H](CCCCN)NC(=O)CNC(=O)[C@H](Cc2ccccc2)NC(=O)[C@H](CCCCN)NC(=O)[C@H](CCCCN)NC(=O)[C@H](CCCCN)NC(=O)[C@H](Cc2c[nH]cn2)NC(=O)[C@H](Cc2c[nH]cn2)NC(=O)[C@]2(C)CCCC=CCCC[C@](C)(NC(=O)CN)C(=O)NCC(=O)N[C@@H](CCCCN)C(=O)N[C@@H](Cc3ccccc3)C(=O)N2)C(=O)N[C@@H](C(C)C)C(=O)N[C@@H](Cc2c[nH]cn2)C(=O)N[C@@H](CCC(=O)O)C(=O)N1)C(=O)N[C@@H](CCC(=O)O)C(=O)N[C@@H](CO)C(N)=O [Mag(i + 4)1, 15(S8H, A9K, G18H, N21E)] (H-G[S5]GKF[S5]HHKKKFGKA[S5]VHE[S5][Nle]ES-NH2; staple 2-6, 16-20; N-terminus assumed) | >50 µg/mL | 12.5 µg/mL | 3.1 µg/mL | 50 µg/mL | 4.2% | 
3 | CCCC[C@H](NC(=O)[C@]1(C)CCCC=CCCC[C@](C)(NC(=O)[C@H](C)NC(=O)[C@H](CCCCN)NC(=O)[C@@H]2C[C@@H](O)CN2C(=O)[C@H](Cc2ccccc2)NC(=O)[C@H](CCCCN)NC(=O)[C@H](CCCCN)NC(=O)[C@H](C)NC(=O)[C@H](CO)NC(=O)[C@H](Cc2c[nH]cn2)NC(=O)[C@H](CC(C)C)NC(=O)[C@H](Cc2ccccc2)NC(=O)[C@H](CCCCN)NC(=O)CNC(=O)[C@@H](NC(=O)CN)[C@@H](C)CC)C(=O)N[C@@H](C(C)C)C(=O)NCC(=O)N[C@@H](CCC(=O)O)C(=O)N1)C(=O)N[C@@H](CC(N)=O)C(=O)N[C@@H](CO)C(N)=O [Mag(i + 4)15(G13&), GIGKFLHSAKKF&KAXVGEXBNS] (H-GIGKFLHSAKKF[Hyp]KA[S5]VGE[S5][Nle]NS-NH2; staple 16-20) | >50 µg/mL | 50 µg/mL | 12.5 µg/mL | >50 µg/mL | 1.3% | 
4 | CCCC[C@H](NC(=O)[C@]1(C)CCCC=CCCC[C@](C)(NC(=O)[C@H](C)NC(=O)[C@H](CCCCN)NC(=O)[C@H](CCCCN)NC(=O)[C@H](Cc2ccccc2)NC(=O)[C@H](CCCCN)NC(=O)[C@H](CCCCN)NC(=O)[C@H](C)NC(=O)[C@H](CO)NC(=O)[C@H](Cc2c[nH]cn2)NC(=O)[C@H](CC(C)C)NC(=O)[C@H](Cc2ccccc2)NC(=O)[C@H](CCCCN)NC(=O)CNC(=O)[C@@H](NC(=O)CN)[C@@H](C)CC)C(=O)N[C@@H](C(C)C)C(=O)NCC(=O)N[C@@H](CCC(=O)O)C(=O)N1)C(=O)N[C@@H](CC(N)=O)C(=O)N[C@@H](CO)C(N)=O [Mag(i + 4)15(G13K), GIGKFLHSAKKFKKAXVGEXBNS] (H-GIGKFLHSAKKFKKA[S5]VGE[S5][Nle]NS-NH2; staple 16-20) | >50 µg/mL | 12.5 µg/mL | 3.1 µg/mL | >50 µg/mL | 1.8% | 
5 | CCCC[C@H](NC(=O)[C@]1(C)CCCC=CCCC[C@](C)(NC(=O)[C@H](C)NC(=O)[C@H](CCCCN)NC(=O)CNC(=O)[C@H](Cc2ccccc2)NC(=O)[C@H](CCCCN)NC(=O)[C@H](CCCCN)NC(=O)[C@H](Cc2c[nH]cn2)NC(=O)[C@H](CO)NC(=O)[C@]2(C)CCCC=CCCC[C@](C)(NC(=O)[C@H](CCCCN)NC(=O)CN)C(=O)N[C@@H](CCCCN)C(=O)N[C@@H](Cc3ccccc3)C(=O)N[C@@H](CC(C)C)C(=O)N2)C(=O)N[C@@H](C(C)C)C(=O)NCC(=O)N[C@@H](CCC(=O)O)C(=O)N1)C(=O)N[C@@H](CC(N)=O)C(=O)N[C@@H](CO)C(N)=O [Mag(i + 4)2, 15(I2X, A9H)] (H-GK[S5]KFL[S5]SHKKFGKA[S5]VGE[S5][Nle]NS-NH2; staple 3-7, 16-20) | 12.5 µg/mL | 6.2 µg/mL | 3.1 µg/mL | 6.2 µg/mL | 0.6% | completely eliminated
6 | CCCC[C@H](NC(=O)[C@]1(C)CCCC=CCCC[C@](C)(NC(=O)[C@H](C)NC(=O)[C@H](CCCCN)NC(=O)CNC(=O)[C@H](Cc2ccccc2)NC(=O)[C@H](CCCCN)NC(=O)[C@H](CCCCN)NC(=O)[C@H](C)NC(=O)[C@H](CO)NC(=O)[C@H](Cc2c[nH]cn2)NC(=O)[C@H](CC(C)C)NC(=O)[C@H](Cc2ccccc2)NC(=O)[C@H](CCCCN)NC(=O)CNC(=O)[C@@H](NC(=O)[C@@H](N)CCC(=O)O)[C@@H](C)CC)C(=O)N[C@@H](C(C)C)C(=O)NCC(=O)N[C@@H](CCC(=O)O)C(=O)N1)C(=O)N[C@@H](CC(N)=O)C(=O)N[C@@H](CO)C(N)=O [Mag(i + 4)15(G1E), EIGKFLHSAKKFGKAXVGEXBNS] (H-EIGKFLHSAKKFGKA[S5]VGE[S5][Nle]NS-NH2; staple 16-20) | >50 µg/mL | 50 µg/mL | 12.5 µg/mL | >50 µg/mL | 4.1% | 

The next lines start with results.

Row | MIC S. aureus (S. aureus) | MIC P. aeruginosa (P. aeruginosa) | MIC E. coli (E. coli) | MIC B. cereus (B. cereus) | Structure (SMILES) | % Hemolysis at 25 μg/ml (human red blood cells; red cells of human, 1 h, 25) | % Hemolysis at 25 μg/ml (human red blood cells)
7 | 12.5 µg/mL | 3.1 µg/mL | 1.6 µg/mL | 3.1 µg/mL | CCCC[C@H](NC(=O)[C@]1(C)CCCC=CCCCCCC[C@@](C)(NC(=O)[C@H](Cc2ccccc2)NC(=O)[C@H](CCCCN)NC(=O)[C@H](CCCCN)NC(=O)[C@H](C)NC(=O)[C@H](CO)NC(=O)[C@H](Cc2c[nH]cn2)NC(=O)[C@H](CC(C)C)NC(=O)[C@H](Cc2ccccc2)NC(=O)[C@H](CCCCN)NC(=O)CNC(=O)[C@@H](NC(=O)CN)[C@@H](C)CC)C(=O)N[C@@H](CCCCN)C(=O)N[C@@H](C)C(=O)N[C@@H](Cc2ccccc2)C(=O)N[C@@H](C(C)C)C(=O)NCC(=O)N[C@@H](CCC(=O)O)C(=O)N1)C(=O)N[C@@H](CC(N)=O)C(=O)N[C@@H](CO)C(N)=O [Mag(i + 7)12] (H-GIGKFLHSAKKF[R8]KAFVGE[S5][Nle]NS-NH2; staple 13-20 (inferred); N-terminus and C-terminus assumed) | 80.3% | 
8 | 12.5 µg/mL | 25 µg/mL | 6.2 µg/mL | 12.5 µg/mL | CCCC[C@H](NC(=O)[C@@H](NC(=O)[C@H](CCC(=O)O)NC(=O)CNC(=O)[C@@H](NC(=O)[C@H](Cc1ccccc1)NC(=O)[C@H](C)NC(=O)[C@H](CCCCN)NC(=O)CNC(=O)[C@H](Cc1ccccc1)NC(=O)[C@]1(C)CCCC=CCCCCCC[C@@](C)(NC(=O)CNC(=O)[C@@H](NC(=O)CN)[C@@H](C)CC)C(=O)N[C@@H](Cc2ccccc2)C(=O)N[C@@H](CC(C)C)C(=O)N[C@@H](Cc2c[nH]cn2)C(=O)N[C@@H](CO)C(=O)N[C@@H](C)C(=O)N[C@@H](CCCCN)C(=O)N1)C(C)C)[C@@H](C)CC)C(=O)N[C@@H](CC(N)=O)C(=O)N[C@@H](CO)C(N)=O [Mag(i + 7)3] (H-GIG[R8]FLHSAK[S5]FGKAFVGEI[Nle]NS-NH2; staple 4-11 (inferred); N-terminus and C-terminus assumed) | 52.5% | 
9 | 12.5 µg/mL | 3.1 µg/mL | 3.1 µg/mL | 3.1 µg/mL | CCCC[C@H](NC(=O)[C@@H](NC(=O)[C@H](CCC(=O)O)NC(=O)CNC(=O)[C@@H](NC(=O)[C@H](Cc1ccccc1)NC(=O)[C@H](C)NC(=O)[C@H](CCCCN)NC(=O)CNC(=O)[C@H](Cc1ccccc1)NC(=O)[C@H](CCCCN)NC(=O)[C@H](CCCCN)NC(=O)[C@]1(C)CCCC=CCCCCCC[C@@](C)(NC(=O)CN)C(=O)NCC(=O)N[C@@H](CCCCN)C(=O)N[C@@H](Cc2ccccc2)C(=O)N[C@@H](CC(C)C)C(=O)N[C@@H](Cc2c[nH]cn2)C(=O)N[C@@H](CO)C(=O)N1)C(C)C)[C@@H](C)CC)C(=O)N[C@@H](CC(N)=O)C(=O)N[C@@H](CO)C(N)=O [Mag(i + 7)1] (H-G[R8]GKFLHS[S5]KKFGKAFVGEI[Nle]NS-NH2; staple 2-9 (inferred); N-terminus and C-terminus assumed) | 49.9% | 
10 | >50 µg/mL | >50 µg/mL | 6.2 µg/mL | >50 µg/mL | CCCC[C@H](NC(=O)[C@]1(C)CCCC=CCCC[C@](C)(NC(=O)[C@H](C)NC(=O)[C@H](CCCCN)NC(=O)CNC(=O)[C@H](Cc2ccccc2)NC(=O)[C@H](CCCCN)NC(=O)[C@H](CCC(=O)O)NC(=O)[C@H](C)NC(=O)[C@H](CO)NC(=O)[C@H](Cc2c[nH]cn2)NC(=O)[C@H](CC(C)C)NC(=O)[C@H](Cc2ccccc2)NC(=O)[C@H](CCCCN)NC(=O)CNC(=O)[C@@H](NC(=O)CN)[C@@H](C)CC)C(=O)N[C@@H](C(C)C)C(=O)NCC(=O)N[C@@H](CCC(=O)O)C(=O)N1)C(=O)N[C@@H](CC(N)=O)C(=O)N[C@@H](CO)C(N)=O [Mag(i + 4)15(K10E), GIGKFLHSAEKFGKAXVGEXBNS] (H-GIGKFLHSAEKFGKA[S5]VGE[S5][Nle]NS-NH2; staple 16-20) | 2.4% | 
